Data set [1] relates to SARS-CoV-2. Kind of data set: microbe, parasite or virus in culture. It is filed as cell-based.
Data set [2] is described as follows: in vitro. As to conditions: human, Caco-2.
A short description of data set [3]: in vitro. As to conditions: mouse, microsomes.
The target in data set [4] is T1, SARS-CoV-2 M^pro (Severe acute respiratory syndrome coronavirus 2, UniProt P0DTD1). The data set is described as follows: Mpro protease activity assay (FRET, used for Table 1). It is filed as biochemical.
For data set [5] the following is noted: mouse; for Metabolic stability: microsomes.
The target in data set [6] is T2, human cathepsin S (Homo sapiens, UniProt P25774).
T2 construct: purchased Anaspec, Inc. SensoLyte 440 cathepsin S Assay Kit (catalogue number not given)
Kind of data set: Counter assay screening, SensoLyte 440 cathepsin S kit. Type of data set: biochemical. The settings on record: for Inhibitory activity against human Cathepsin S: concentrations 50 to 0.00085 µM; for IC50: tested up to 50 µM.

For data set [7] the following is noted: human; for Metabolic stability: microsomes.
The target in data set [8] is avi-tagged SARS-CoV-2 M^pro (Severe acute respiratory syndrome coronavirus 2, UniProt P0DTD1). Type of data set: binding.
Data set [9] in a line: in vitro. As to conditions: human, microsomes.
Data set [10] concerns M^pro. As to conditions: read-out: IC50 M^pro; cited from earlier work.
The target of data set [11] is T1, SARS-CoV-2 M^pro. Kind of data set: In vitro FRET enzymatic assay (screening at 1 µM and SAR IC50). Type of data set: biochemical. The settings on record: read-out: IC50 ± SEM.
[12] abbreviates: 75 nM M^pro, 10 µM substrate, 11-point series from 50 µM.

Like-named read-outs stand apart in the source and are kept apart here.

T2 sequence (P25774 115-331): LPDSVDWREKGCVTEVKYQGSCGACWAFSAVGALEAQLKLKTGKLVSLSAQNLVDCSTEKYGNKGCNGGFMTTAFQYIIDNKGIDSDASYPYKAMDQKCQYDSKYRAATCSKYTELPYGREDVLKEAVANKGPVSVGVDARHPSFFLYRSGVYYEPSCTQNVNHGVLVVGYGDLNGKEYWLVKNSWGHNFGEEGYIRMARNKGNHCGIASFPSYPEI

On to `N#Cc1cc(C(=O)N[C@H](CC2CCC2)C(=O)N[C@H](CC(=O)N[C@H](Cc2ccncc2)C(=O)O)Cc2c[nH]c3ccccc23)ccn1` [MP1], for which, in [1], the “Protective effect on infected Calu-3 (CPE)” value is “no protective effect”. The EC50 in data set [1] (Severe acute respiratory syndrome coronavirus 2, Calu-3, 48 h, read-out: EC50 inhibition of CPE development) was 2300 nM. In data set [2], this compound displayed a Papp A→B of 5.4 ×10⁻⁶ cm/s and a Papp B→A of 2.5 ×10⁻⁶ cm/s.
In data set [3], `CCCC[C@@H](NC(=O)c1ccnc(C#N)c1)C(=O)N[C@H](CC(=O)N[C@H](Cc1ccncc1)C(=O)NC)Cc1c[nH]c2ccccc12` [SLL12] gave a microsomal CLint of 170 µL/min/mg. 53 nM corresponded to half-maximal inhibition in data set [4] (setting [12]) (IC50). In data set [4] (off-DNA synthesized DECL hits), the “IC50 M^pro” value is reported as “low nanomolar range”. In data set [5], the “In vitro half time” value is 8 min and the “Metabolic stability” value is “low metabolic stability”. Moreover, in data set [6], the “Inhibitory activity against human Cathepsin S” value (“Inhibitory activity” for short) was “no inhibitory activity” and the IC50 was above 50000 nM. Further, in data set [7], the “In vitro half time” value is 11 min and the “Metabolic stability” value was “low metabolic stability”. Also, in [8], the “Enrichment score M^pro” value is listed as 488,354 and the “Enrichment score M^pro +GC376” value turned out to be 0. In data set [9], this compound registered a microsomal CLint of 131 µL/min/mg.
Regarding `CC(C)C[C@H](NC(=O)OCc1ccccc1)C(=O)N[C@@H](CC1CCNC1=O)C(O)S(=O)(=O)O` (stereo partly drawn) [GC376], the IC50 in data set [10] is 150 nM.
As to `CNC(=O)C(Cc1ccncc1)NC(=O)CC(Cc1c[nH]c2ccccc12)NC(=O)C(CC1CCC1)NC(=O)c1ccnc(C#N)c1` (stereo not drawn) [SLL11], the microsomal CLint in [3] turned out to be 154 µL/min/mg; in [9], 139 µL/min/mg. The figures for the IC50 in [4] (setting [12]), in [4] (off-DNA synthesized DECL hits) and in [6] were 30 nM, at most 30 nM and above 50000 nM, respectively. Further, the “IC50 M^pro” value in data set [4] (off-DNA synthesized DECL hits) is recorded as “low nanomolar range”. Further, the “In vitro half time” value in [5] is on record as 9 min; in [7], 10 min. In addition, the “Metabolic stability” value in data set [5] and in [7] was “low metabolic stability” throughout. The “Inhibitory activity” value in data set [6] is “no inhibitory activity”. In addition, the “Enrichment score M^pro” value in data set [8] is 515,485. For the same compound, the “Enrichment score M^pro +GC376” value in data set [8] is on record as 206,982.
Compound `CNC(=O)[C@@H](CSCNC(C)=O)NC(=O)c1ccc2cncc(-c3ccc(Oc4ccccc4)nc3)c2n1` [SLL08] returned an IC50 in data set [4] (setting [12]) above 50000 nM. Moreover, in data set [6], the “Inhibitory activity” value is “no inhibitory activity” and the IC50 was above 50000 nM. In data set [8], the “Enrichment score M^pro” value is given as 11,444 and the “Enrichment score M^pro +GC376” value was found to be 676.
Consider `CCCC[C@@H](NC(=O)c1ccnc(C#N)c1)C(=O)N[C@H](CC(=O)N[C@H](Cc1ccncc1)C(=O)O)Cc1c[nH]c2ccccc12` [MP9], for which the IC50 in data set [11] was 139 ± 49 nM.
In data set [4] (setting [12]), `CCCCC(NC(=O)CC(Cc1c[nH]c2ccccc12)NC(=O)C(Cc1ccccc1)NC(=O)c1ccnc(C#N)c1)C(=O)NC` (stereo not drawn) [SLL07] showed an IC50 of 140 nM. Besides, the “IC50 M^pro” value in data set [4] (off-DNA synthesized DECL hits) is given as “low nanomolar range”. Moreover, in [6], the “Inhibitory activity” value was “no inhibitory activity” and the IC50 was above 50000 nM. In data set [8], the “Enrichment score M^pro” value is 135,654 and the “Enrichment score M^pro +GC376” value turned out to be 0.
